Results from patent publication EP1984353B1, “AURORA KINASE MODULATORS AND METHOD OF USE” (Amgen, Inc, priority 2006, dated 2007).
Like-named read-outs stand apart in the source and are kept apart here.

Experiments:
[1] = molecular target: T1, AuroraA-TPX2 (Homo sapiens, UniProt O14965); assay: AuroraA-TPX2 Homogeneous Time Resolved Fluorescent (HTRF) kinase assay; type: biochemical; details: average, read-out: AurA/TP X2_ IC50_IP (Avg)
T1 construct: 20 µL of AuroraA-TPX2 KD GST; GST
T1 sequence (O14965 133-383 limits assumed): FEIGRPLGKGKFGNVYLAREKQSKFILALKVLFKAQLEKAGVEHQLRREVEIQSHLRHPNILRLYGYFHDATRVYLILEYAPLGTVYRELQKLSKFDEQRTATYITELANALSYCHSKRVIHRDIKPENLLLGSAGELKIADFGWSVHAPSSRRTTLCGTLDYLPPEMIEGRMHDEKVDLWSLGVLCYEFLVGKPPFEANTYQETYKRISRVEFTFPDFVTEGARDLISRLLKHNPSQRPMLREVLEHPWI
T1 sequence (Q9ULW0 1-43 partner limits assumed): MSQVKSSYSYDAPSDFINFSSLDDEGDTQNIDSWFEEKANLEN
Procedure, shortened: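 HTRF read-out: europium anti-phosphoPLK antibody (0.02 nM) plus streptavidin-APC detect phosphorylated biotin-PLK after EDTA stop and overnight equilibration. Kinase step runs about 120 min with Aurora-A/TPX2, ATP and roughly 1 µM PLK peptide at pH 7.5 HEPES buffer with Mg2+ and DTT.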

[2] = molecular target: T2, AuroraB (Homo sapiens, UniProt Q96GD4); assay: AuroraB Homogeneous Time Resolved Fluorescent (HTRF) kinase assay; type: biochemical; details: average, read-out: AurB_ _IC50_IP (Avg)
T2 construct: 20 µL of AuroraB FL His; His
T2 sequence (Q96GD4 whole entry): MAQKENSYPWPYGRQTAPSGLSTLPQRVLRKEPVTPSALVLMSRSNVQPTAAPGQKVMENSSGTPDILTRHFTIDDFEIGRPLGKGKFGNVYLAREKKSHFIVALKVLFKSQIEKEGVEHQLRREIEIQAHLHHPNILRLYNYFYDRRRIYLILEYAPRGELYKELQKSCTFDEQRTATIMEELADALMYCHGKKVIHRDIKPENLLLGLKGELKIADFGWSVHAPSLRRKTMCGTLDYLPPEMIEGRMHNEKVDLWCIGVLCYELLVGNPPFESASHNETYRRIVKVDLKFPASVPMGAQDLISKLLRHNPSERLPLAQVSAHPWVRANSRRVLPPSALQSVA
Procedure, shortened: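 HTRF read-out: after EDTA stop and ~60 min with europium anti-phospho-H3 antibody and streptavidin-APC, 655/615 nm ratio reports phosphorylation. Reaction: 400 pM AuroraB FL His, 23 µM ATP (at Km(app)), 0.1 µM biotin-Histone H3 peptide, 50 mM HEPES pH 7.5, MgCl/MnCl, ~90 min.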

[3] = given as numbers, unit inferred

| SMILES | IC50 ([1]; given as class symbols) [µM] | IC50 ([2]; given as class symbols) [µM] | IC50 [1, 3] [µM] | IC50 [2, 3] [µM] |
| --- | --- | --- | --- | --- |
| O=C(O)CCNc1nccc(-c2cccnc2Oc2ccc(Nc3nnc(-c4ccccc4)c4ccccc34)cc2)n1 [compound 327, N-(4-(2-((4-((4-phenyl-1-phthalazinyl)amino)phenyl)oxy)-3-pyridinyl)-2-pyrimidinyl)-beta-alanine] | 0.1 to 0.5 | 0.5 to 2.5 |  |  |
| C[C@H]1CN(CCCNc2nccc(-c3cccnc3Oc3ccc(Nc4nnc(-c5ccccc5)c5ccccc45)cc3)n2)[C@@H](C)CO1 [compound 328, N-(4-((3-(2-((3-((2S,5S)-2,5-dimethyl-4-morpholinyl)propyl)amino)-4-pyrimidinyl)-2-pyridinyl)oxy)phenyl)-4-phenyl-1-phthalazinamine] |  |  | 0.065 | 0.0043 |
| Nc1nccc(-c2cccnc2Oc2ccc(Nc3nnc(-c4cccc(COP(=O)(O)O)c4)c4ccccc34)cc2)n1 [compound 351, (3-(4-((4-((3-(2-amino-4-pyrimidinyl)-2-pyrldinyl)oxy)phenyl)amino)-1-phthalazinyl)pbenyl)methyl dihydrogen phosphate] | 0.1 to 0.5 | ≤ 0.1 |  |  |
| Nc1nccc(-c2cccnc2Oc2ccc(Nc3nnc(N4CCCC(CO)C4)c4ccccc34)cc2)n1 (stereo not drawn) [compound 352, (1-(4-((4-((3-(2-amino-4-pyrimidinyl)-2-pyridinyl)oxy)phenyl)amino)-1-phthalazinyl)-3-piperidinyl)methanol] | ≤ 0.1 | ≤ 0.1 |  |  |
| Nc1nccc(-c2cccnc2Oc2ccc(Nc3nnc(N4CCCC(O)C4)c4ccccc34)cc2)n1 (stereo not drawn) [compound 354, 1-(4-((4-((3-(2-amino-4-pyrimidinyl)-2-pyridinyl)oxy)phenyl)amino)-1-phthalazinyl)-3-piperidinol] |  |  | 0.0874 | 0.0259 |
| Nc1nccc(-c2cccnc2Oc2ccc(Nc3nnc(-c4cccc(CCO)c4)c4ccccc34)cc2)n1 [compound 355, 2-(3-(4-((4-((3-(2-amino-4-pyrimidinyl)-2-pyridinyl)oxy)phenyl)amino)-1-phthalazinyl)phenyl)ethanol] | ≤ 0.1 | ≤ 0.1 |  |  |
| CC(C)(O)c1cccc(-c2nnc(Nc3ccc(Oc4ncccc4-c4ccnc(N)n4)cc3)c3ccccc23)c1 [compound 357, 2-(3-(4-((4-((3-(2-amino-4-pyrimidinyl)-2-pyridinyl)oxy)phenyl)amino)-1-phthalazinyl)phenyl)-2-propanol] | ≤ 0.1 | ≤ 0.1 |  |  |
| Nc1nccc(-c2cccnc2Oc2ccc(Nc3nnc(N4CCC(O)CC4)c4ccccc34)cc2)n1 [compound 358, 1-(4-((4-((3-(2-amino-4-pyrimidinyl)-2-pyridinyl)oxy)phenyl)amino)-1-phthalazinyl)-4-piperidinol] | 0.5 to 2.5 | ≤ 0.1 |  |  |
| Cc1csc(-c2nnc(Nc3ccc(Oc4ncccc4-c4ccnc(NCCCO)n4)cc3)c3ccccc23)n1 [compound 359, 3-((4-(2-((4-((4-(4-methyl-1,3-thiazol-2-yl)-1-phthalazinyl)amino)phenyl)oxy)-3-pyridinyl)-2-pyrimidinyl)amino)-1-propanol] | ≤ 0.1 | ≤ 0.1 |  |  |
| C[C@H](O)c1cccc(-c2nnc(Nc3ccc(Oc4ncccc4-c4ccnc(N)n4)cc3)c3ccccc23)c1 [compound 360, (1S)-1-(3-(4-((4-((3-(2-amino-4-pyrimidinyl)-2-pyridinyl)oxy)phenyl)amino)-1-phthalazinyl)phenyl)ethanol] | ≤ 0.1 | ≤ 0.1 |  |  |
| C[C@@H](O)c1cccc(-c2nnc(Nc3ccc(Oc4ncccc4-c4ccnc(N)n4)cc3)c3ccccc23)c1 [compound 361, (1R)-1-(3-(4-((4-((3-(2-amino-4-pyrimidinyl)-2-pyridinyl)oxy)phenyl)amino)-1-phthalazinyl)phenyl)ethanol] | ≤ 0.1 | ≤ 0.1 |  |  |
| Nc1nccc(-c2cccnc2Oc2ccc(Nc3nnc(-c4cccc(CCCOP(=O)(O)O)c4)c4ccccc34)cc2)n1 [compound 362, 3-(3-(4-((4-((3-(2-amino-4-pyrimidinyl)-2-pyridinyl)oxy)phenyl)amino)-1-phthalazinyl)phenyl)propyl dihydrogen phosphate] | ≤ 0.1 | ≤ 0.1 |  |  |
| Nc1nccc(-c2cccnc2Oc2ccc(Nc3nnc(-c4cccc(OP(=O)(O)O)c4)c4ccccc34)cc2)n1 [compound 366, 3-(4-((4-((3-(2-amino-4-pyrimidinyl)-2-pyridinyl)oxy)phenyl)amino)-1-phthalazinyl)phenyl dihydrogen phosphate] | 0.1 to 0.5 | 0.1 to 0.5 |  |  |
| OCCCNc1nccc(-c2cccnc2Oc2ccc(Nc3nnc(-c4ccccc4)c4ccccc34)cn2)n1 [compound 367, 3-((4-(2-((5-((4-phenyl-1-phthalazinyl)amino)-2-pyridinyl)oxy)-3-pyridinyl)-2-pyrimidinyl)amino)-1-propanol] | ≤ 0.1 | ≤ 0.1 |  |  |
| Cc1cc(-c2cccc(CO)c2)nnc1Nc1ccc(Oc2ncccc2-c2ccnc(N)n2)cc1 [compound 370, (3-(6-((4-((3-(2-amino-4-pyrimidinyl)-2-pyridinyl)oxy)phenyl)amino)-5-methyl-3-pyridazinyl)phenyl)methanol] | ≤ 0.1 | ≤ 0.1 |  |  |
| Nc1cc(-c2cccnc2Oc2ccc(Nc3nnc(-c4ccccc4O)c4ccccc34)cc2)ccn1 [compound 371, 2-(4-((4-((2'-amino-3,4'-bipyridin-2-yl)oxy)phenyl)amino)-1-phthalazinyl)phenol] | 0.1 to 0.5 | ≤ 0.1 |  |  |
| COc1ccc(F)c(-c2nnc(Nc3ccc(Oc4ncccc4-c4ccnc(N)n4)cc3)c3ccccc23)c1 [compound 372, N-(4-((3-(2-amino-4-pyrimidinyl)-2-pyridinyl)oxy)phenyl)-4-(2-fluoro-5-(methyloxy)phenyl)-1-phthalazinamine] | ≤ 0.1 | ≤ 0.1 |  |  |
| Nc1nccc(-c2cccnc2Oc2ccc(Nc3nnc(-c4cc(O)ccc4F)c4ccccc34)cc2)n1 [compound 373, 3-(4-((4-((3-(2-amino-4-pyrimidinyl)-2-pyridinyl)oxy)phenyl)amino)-1-phthalazinyl)-4-fluorophenol] | ≤ 0.1 | ≤ 0.1 |  |  |
| CN(C)CCCOc1cccc(-c2nnc(Nc3ccc(Oc4ncccc4-c4ccnc(N)n4)cc3)c3ccccc23)c1 [compound 374, N-(4-((3-(2-amino-4-pyrimidinyl)-2-pyridinyl)oxy)phenyl)-4-(3-((3-(dimethylamino)propyl)oxy)phenyl)-1-phthalazinamine] | ≤ 0.1 | ≤ 0.1 |  |  |

Now from value to compound:

| IC50 ([1]; given as class symbols) [µM] | IC50 ([2]; given as class symbols) [µM] | IC50 [1, 3] [µM] | IC50 [2, 3] [µM] | SMILES |
| --- | --- | --- | --- | --- |
| ≤ 0.1 | ≤ 0.1 |  |  | Nc1nccc(-c2cccnc2Oc2ccc(Nc3nnc(-c4ccccn4)c4ccccc34)cc2)n1 [compound 356, N-(4-((3-(2-amino-4-pyrimidinyl)-2-pyridinyl)oxy)phenyl)-4-(2-pyridinyl)-1-phthalazinamine] |
| ≤ 0.1 | ≤ 0.1 |  |  | Nc1nccc(-c2cccnc2Oc2ccc(Nc3nnc(-c4cccc(O)c4)c4ccccc34)cn2)n1 [compound 363, 3-(4-((6-((3-(2-amino-4-pyrimidinyl)-2-pyridinyl)oxy)-3-pyridinyl)amino)-1-phthalazinyl)phenol] |
| 0.1 to 0.5 | ≤ 0.1 |  |  | Nc1nccc(-c2cccnc2Oc2ccc(Nc3nnc(-c4ccccc4O)c4ccccc34)cc2)n1 [compound 364, 2-(4-((4-((3-(2-amino-4-pyrimidinyl)-2-pyridinyl)oxy)phenyl)amino)-1-phthalazinyl)phenol] |
|  |  | 0.0276 | 0.0113 | Nc1nccc(-c2cccnc2Oc2ccc(Nc3nnc(-c4ccccc4O)c4ccccc34)cn2)n1 [compound 365, 2-(4-((6-((3-(2-amino-4-pyrimidinyl)-2-pyridinyl)oxy)-3-pyridinyl)amino)-1-phthalazinyl)phenol] |
| 0.5 to 2.5 | 0.5 to 2.5 |  |  | Nc1nccc(-c2cccnc2Oc2ccc(Nc3nnc(-c4ccccc4OP(=O)(O)O)c4ccccc34)cc2)n1 [compound 368, 2-(4-((4-((3-(2-amino-4-pyrimidinyl)-2-pyridinyl)oxy)phenyl)amino)-1-phthalazinyl)phenyl dihydrogen phosphate] |
| ≤ 0.1 | ≤ 0.1 |  |  | C[C@H](O)c1cccc(-c2nnc(Nc3ccc(Oc4ncccc4-c4ccnc(N)n4)nc3)c3ccccc23)c1 [compound 369, (1S)-1-(3-(4-((6-((3-(2-amino-4-pyrimidinyl)-2-pyridinyl)oxy)-3-pyridinyl)amino)-1-phthalazinyl)phenyl)ethanol] |
| ≤ 0.1 | ≤ 0.1 |  |  | Nc1nccc(-c2cccnc2Oc2ccc(Nc3nnc(-c4cccc(CO)c4)c4ccccc34)cn2)n1 [compound 375, (3-(4-((6-((3-(2-amino-4-pyrimidinyl)-2-pyridinyl)oxy)-3-pyridinyl)amino)-1-phthalazinyl)phenyl)methanol] |
| ≤ 0.1 | ≤ 0.1 |  |  | COc1ccc(F)c(-c2nnc(Nc3ccc(Oc4ncccc4-c4ccnc(N)n4)nc3)c3ccccc23)c1 [compound 376, N-(6-((3-(2-amino-4-pyrimidinyl)-2-pyridinyl)oxy)-3-pyridinyl)-4-(2-fluoro-5-(methyloxy)phenyl)-1-phthalazinamine] |
